“Also recorded” adds a separate entry of the source. Read-outs that look alike come from different tables or passages of the source.

The conditions of series [1]: background statement; cited from earlier work.
Series [2] deals with An. gambiae s.s., Mbita strain. As to the kind of experiment: Semi-field testing in MalariaSphere (push / push-pull, trap catches inside and outside experimental house). It is filed as in vivo, Anopheles gambiae s.s. Conditions: for spatial repellent effect: inventors' observation, repellent traps spaced about 4-5 meters apart; for Indoors Mean (SEM) no. mosquitoes / Indoors Percentage trapped / Reduction (mosquitoes trapped indoors vs control) / Outdoors Mean (SEM) no. mosquitoes / Outdoors Percentage trapped: n=6. Also noted: Reduction (mosquitoes trapped indoors vs control): concentration or dose not given beside the values. From the text:
Mosquitoes (An. gambiae s.s., Mbita strain; henceforth termed An. gambiae) were reared under ambient atmospheric conditions in screenhouses (larvae) and holding rooms (adults) at the Thomas Odhiambo Campus (TOC) of the International Centre of Insect Physiology and Ecology (ICIPE) located near Mbita Point township in western Kenya. Mosquito eggs were placed in plastic trays containing filtered water from Lake Victoria. All larval instars were fed on Tetramin® baby fish food which was supplied thrice per day. Pupae were collected daily and placed in mesh-covered cages (30×30×30 cm) prior to adult emergence. Adult mosquitoes were fed on 6% glucose solution through wicks made from adsorbent tissue paper.
Four to six day old female mosquitoes that had no prior access to blood were used for the semi-field experiments. The mosquitoes were collected from the colony at 12:00 h each day and stored for eight hours in the colony room with access to water on cotton wool. Within 15 min. before the start of the experiment the cups with the mosquitoes were transported to the MalariaSphere.
The experiments were conducted in Kenya at the Mbita Point Research & Training Centre of the International Centre of Insect Physiology and Ecology (ICIPE). Experiments took place in the MalariaSphere, a screenhouse into which a traditional house was built surrounded by natural vegetation (see Knols et al. (2002)). […] The MalariaSphere was set up as described by Knols et al. (2002) with as only modification that no breeding sites were present.
In the experiment the effects of attractant-baited traps and the dispersal of repellents around the traditional house were tested. Eight different setups were tested. During all tests, one attractant-baited trap (see below) was placed inside the experimental house to represent a human being. The house entry of the mosquitoes was measured by the number of mosquitoes caught by the trap inside the house.
Each night at 20:00 h, 200 female mosquitoes were released into the MalariaSphere. At 06:30 h the next morning the experiment was terminated by closing and switching off all traps. The traps were then placed in a freezer for several minutes to inactivate the mosquitoes, after which the number of trapped mosquitoes was determined.
The study compared the effect of three different repellents; in push-only situations, as well as in situations in which both the repellent and the attractive elements were present. […] Open circles represent a MMX trap baited with attractant. Filled circles represent a MMX trap dispersing the repellent. The asterisk indicates the mosquito release point. The numbers of the treatments correspond to the following:
Each setup was tested during six different nights, thus a total of 48 tests was carried out, during the same number of nights. The order of the tests was not fully randomized in order to minimize the risk of contamination of the MalariaSphere with the odours used.
Besides PMD, catnip essential oil (e.o.) and delta-undecalactone (dUDL) were used as repellents. Strips were impregnated with 40% solutions (catnip e.o. and dUDL were dissolved in paraffin oil) as described below.
Each night 200 mosquitoes were released from one central point between the entrance of the screenhouse and the experimental hut (see FIG. 3).
Mosquito Magnet® X (MM-X) traps (Kline (1999), Njiru et al (2006)) were baited with CO2 and a five-compound odour blend, which simulates the smell of a human foot (Mukabana et al., 2012). The individual compounds of the attractive blend were released from nylon strips (cut from panty hoses: 90% polyamide, 10% spandex, Marie Claire®) (Okumu et al. (2010b)). Concentrations were optimized for this setup and release method: ammonia (2.5% in water), L-(+)-lactic-acid (88-92%), tetradecanoic acid (0.000032% in ethanol), 3-methyl-1-butanol (0.000001% in water) and butan-1-amine (0.001% in paraffin oil) (see Table 1). […]

Series [3] concerns Anopheles gambiae s.s. females. As to the kind of experiment: Laboratory bioassay of repellent compounds (landings on heated, odour-baited plateau). It is filed as in vivo. Conditions: for repellent effect on host-seeking mosquitoes: 1% concentration; for effect on number of landings during eight minutes compared to ethanol control: 1% in ethanol on nylon strip, ten females, n=8, Mann-Whitney U, α=0.0042, listed in order of increasing efficacy. As for the experimental part: The bioassay was set up in a room in which air temperature and relative humidity (RH) could easily be controlled. During experiments these parameters were continuously monitored using a Tinyview® data logger with display. Temperature was maintained at 24±1° C. and RH was kept between 60 and 75%.
Because repellents are volatile compounds, the risk of contamination of the setup is always present when testing these substances. Therefore, this bioassay uses replaceable 30×30×30 cm Bugdorm® cages as flight chambers. Although made of polyethylene (PE) and polypropylene (PP) which may potentially pick up the compounds tested, no contamination effects were observed, in contrast to a previously used cage made of metal and polycarbonate (see below).
Mosquitoes were attracted to a heated circular plateau (1) of diameter 15 cm acting as a landing surface, that was positioned underneath the gauze bottom of the Bugdorm® (2). Ten moist filter papers (3) of diameter 8 cm were applied on top of the heating plateau. Metal gauze was placed over the papers on which the strips releasing the odour blend were laid (see below). A transparent plastic cylinder was placed around the plateau to concentrate the warm, humid air within the area above the plateau.
A five-compound odour bait, which simulates the smell of a human foot (Mukabana et al., 2012), provided the necessary attractive background against which repellency could be measured. The individual compounds were released from nylon strips (cut from panty hoses: 90% polyamide, 10% spandex, Marie Claire®) (see Okumu et al. (2010b)). Concentrations were optimized for this release method: ammonia (25%), L-(+)-lactic-acid (88-92%), tetradecanoic acid (16% in ethanol), 3-methyl-1-butanol (0.01% in paraffin oil) and butan-1-amine (0.001% in paraffin oil). Strips measuring 26.5 cm×1 cm were impregnated with the attractive compounds by dipping them into an Eppendorf tube containing 1 ml of solution. Subsequently, they were stored at room temperature for three to five hours. Hereafter the strips were hung for half an hour under a fume hood to allow excess fluids to leak off. Finally they were packed in aluminium foil and stored at 4° C. in a refrigerator until use. Pulses of CO2 were released into the Bugdorm® through a teflon tube (4) that rested on top of the Bugdorm®. Each eight seconds, a two second pulse was released at 2.17 mL/sec (or 130 mL/min).
A glass screen (5, 6) was placed between the Bugdorm® and the place from where a researcher would carry out the behavioural observations. In this way, skin and breath emanations from the researcher were prevented from interfering directly with the mosquitoes inside the flight chamber. In the ceiling of the experimental room a fan created a gentle suction to carry off any volatiles emitted by both the experimental operator and the setup.
Repellence was measured by releasing a number of female Anopheles gambiae s.s. mosquitoes into the cage. The mosquitoes were highly attracted to the warm area on the bottom of the Bugdorm® cage and they would land and probe with their proboscis through the gauze in search of a blood-host.
A potential repellent was released from a nylon strip that was prepared identically to the method used for attractive compounds, with the exception that the strips were not hung up under a fume hood but stored in Eppendorf tubes at 4° C. directly after their preparation. The impregnated nylon strips with the repellents were taken out of their solution just before the start of the experiment and allowed to leak out on a piece of filter paper for 10 s before they were placed in the experimental setup. Strips were laid directly on the gauze bottom of the Bugdorm®, in a circle within the circular area under which the attractant blend was released.
After one minute of acclimatization time, the number of landings within the circular area formed by the treated strip was counted for a period of eight minutes. […]

Series [4] relates to An. gambiae s.s., Mbita strain. Conditions: comparison statement; DEET not tested in this setup; cited from earlier work.
[5] abbreviates: push only, 40% solution on strip, 200 mosquitoes released per night.
Setting [6] is: push only, 200 released per night.

For the compound `CCCCCCC1CCCC(=O)O1` (stereo not drawn) [δ-undecalactone, 6-hexyloxan-2-one], the solubility entry in series [1] is “solubility in alcohol”. For the same compound, the spatial repellent effect entry in series [2] was “significant spatial repellent effect; also recorded: significant repellent effect from a distance of at least several decimeters”. Moreover, the “Indoors Mean (SEM) no. mosquitoes” value in series [2] (setting [5]) is 15.2 (2.5) c(d); in series [2] (push-pull (repellent plus attractant-baited traps outside), 200 released per night, listed as dUDL) it was 3.7 (0.7) d; in series [2] (push-pull (repellent plus attractant-baited traps outside), 200 released per night, listed as delta-undecalactone), 3.7 (0.7). The “Indoors Percentage trapped” value is recorded as 7.6% in series [2] (setting [6]); 1.9% in series [2] (push-pull, 200 released per night, listed as dUDL); 1.9% in series [2] (push-pull, 200 released per night, listed as delta-undecalactone). Moreover, the “Reduction (mosquitoes trapped indoors vs control)” value in series [2] (push only, listed as dUDL) is reported as 81.5%; in series [2] (push only, listed as delta-undecalactone), 81.5%; in series [2] (push-pull, listed as dUDL), 95.5%; in series [2] (push-pull, listed as delta-undecalactone), 95.5%. Further, in series [2] (push-pull), the “Outdoors Mean (SEM) no. mosquitoes” value is recorded as 122.8 (7.1). Also, in series [2] (push-pull), the “Outdoors Percentage trapped” value came out at 61.4%. In series [3], the “repellent effect on host-seeking mosquitoes” value was “strong repellent effect”. The “effect on number of landings during eight minutes compared to ethanol control” value (“effect on number … compared to ethanol control” for short) in series [3] was “significantly reduced the number of landings”.
As to `C=CC(C)(O)CCC=C(C)C` (stereo not drawn) [linalool], in series [3], the “effect on number … compared to ethanol control” value is “significantly reduced the number of landings”.
Turning to `CCCCCC1CCCC(=O)O1` (stereo not drawn) [δ-decalactone, 6-pentyloxan-2-one], the solubility result in series [1] is “solubility in alcohols or oils”. Also, the spatial repellent effect result in series [2] is listed as “significant spatial repellent effect; also recorded: significant repellent effect from a distance of at least several decimeters”. Further, in series [3], the “repellent effect on host-seeking mosquitoes” value is on record as “strong repellent effect” and the “effect on number … compared to ethanol control” value is “significantly reduced the number of landings”.
In the case of `CCN(CC)C(=O)c1cccc(C)c1` [DEET, N,N-diethyl-meta-toluamide], the “effect on number … compared to ethanol control” value in series [3] is “significantly reduced the number of landings”. Besides, the spatial repellent effect entry in series [4] is reported as “little or no spatial repellent effect; also recorded: no spatial effect on distances from the human skin greater than a few millimeters”.
In the case of `CC1CCC(C(C)(C)O)C(O)C1` (stereo not drawn) [PMD, p-Menthane-3,8-diol, reference compound], the “Indoors Mean (SEM) no. mosquitoes” value in series [2] (setting [5]) is given as 44.5 (5.6) b; in series [2] (push-pull (repellent plus attractant-baited traps outside), 200 released per night) it was 6.8 (1.2) c, d. Also, the “Indoors Percentage trapped” value is recorded as 22.3% in series [2] (setting [6]) and 3.4% in series [2] (push-pull, 200 released per night). In addition, the “Reduction (mosquitoes trapped indoors vs control)” value in series [2] (push only) worked out at 45.7%; in series [2] (push-pull), 91.7%. Moreover, in series [2] (push-pull), the “Outdoors Mean (SEM) no. mosquitoes” value was 125.0 (13.8). Further, the “Outdoors Percentage trapped” value in series [2] (push-pull) is 62.5%. In addition, in series [3], the “effect on number … compared to ethanol control” value is given as “significantly reduced the number of landings”.
For `CC(=O)CCC=C(C)C` [6-methyl-5-hepten-2-one], in series [3], the “effect on number … compared to ethanol control” value was “significantly reduced the number of landings”.

(Values after patent US20160270393A1, “INSECT REPELLENT COMPOSITIONS AND METHODS OF USE” (Wageningen Universiteit, priority 2013, published 2016).)
